From patent publication US6525001B1, “Substituted pyrimidine and pyridine herbicides” (Mid-American Commercialization Corporation, priority 1997, dated 2003) come the findings set out here.

Type in all cases: in vivo
Experiment [1] has as its system giant foxtail (Setaria faberii). As to the kind of experiment: Test C. The arrangement: key: 0 was no effect; 100 was complete control.
Experiment [2] deals with green foxtail (Setaria viridis). As to the kind of experiment: Test E pre-/postemergence/post directed. The arrangement: key: 0 is no effect; 100 is complete control. To be noted: PREEMERGENCE
The gist of the method: (§1)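 Injury was scored visually on a 0 to 100 scale (100 = complete control) 13 to 21 days after treatment of greenhouse-grown plants. Test chemicals, in a surfactant-containing non-phytotoxic solvent, were sprayed onto soil within a day of planting, onto plants at the two to four leaf stage, or directed at the base of the plants.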

Experiment [3] has as its system leafy spurge (Euphorbia esula). The experiment in a line: Test E pre-/postemergence/post directed. The arrangement: key: 0 is no effect; 100 is complete control. The note with it: PREEMERGENCE
The gist of the method: as §1

In experiment [4] the test system is black nightshade (Solanum nigra). The experiment in a line: Test D. The arrangement: key: 0 is no effect; 100 is complete control. To be noted: POSTEMERGENCE
Here is the method:
(§2) Compounds evaluated in this test were formulated in a non-phytotoxic solvent mixture which included a surfactant and applied to plants that were in the 1- to 4-leaf stage (postemergence application). A mixture of sandy loam soil and greenhouse potting mix in a 60:40 ratio was used for the postemergence test.
(§3) Plantings of these crops and weed species were adjusted to produce plants of appropriate size for the postemergence test. All plant species were grown using normal greenhouse practices. Crop and weed species include alfalfa (Medicago sativa), annual bluegrass (Poa annua), blackgrass (Alopecurus myosuroides), black nightshade (Solanum nigra), chickweed (Stellaria media), common poppy (Papaver rhoeas), deadnettle (Lamium amplexicaule), downy brome (Bromus tectorum), field violet (Viola arvensis), galium 2 (Galium aparine), green foxtail (Setaria viridis), Italian ryegrass (Lolium multiflorum), jointed goatgrass (Aegilops cylindrica), kochia (Kochia scoparia), lambsquarters (Chenopodium album), lentil (Lens culinaris), littleseed canarygrass (Phalaris minor), pea (Pisum sativum), potato (Solanum tuberosum), rape (Brassica napus), redroot pigweed (Amaranthus retroflexus), Russian thistle (Salsola kali), scentless chamomile (Matricaria inodora), sorghum (Sorghum vulgare), spring barley (Hordeum vulgare), sugar beet (Beta vulgaris), sunflower (Helianthus annuus), ivyleaf speedwell (Veronica hederaefolia), spring wheat (Triticum aestivum), winter wheat (Triticum aestivum), wild buckwheat (Polygonum convolvulus), wild mustard (Sinapis arvensis), wild oat (Avena fatua), windgrass (Apera spica-venti) and winter barley (Hordeum vulgare).
(§4) Treated plants and untreated controls were maintained in a greenhouse for approximately 21 to 28 days, after which all treated plants were compared to untreated controls and visually evaluated. Plant response ratings, summarized in Table D, are based upon a 0 to 100 scale where 0 is no effect and 100 is complete control. A dash response (−) means no test result.

Experiment [5] has as its system chickweed (Stellaria media). As to the kind of experiment: Test D. The arrangement: key: 0 is no effect; 100 is complete control. The note with it: POSTEMERGENCE
The method, then:
as §2, §3, §4

Experiment [6] deals with common poppy (Papaver rhoeas). As to the kind of experiment: Test D. To be noted: POSTEMERGENCE
The arrangement: key: 0 is no effect; 100 is complete control. Here is the method:
as §2, §3, §4

The test system of experiment [7] is deadnettle (Lamium amplexicaule). As to the kind of experiment: Test D. The arrangement: key: 0 is no effect; 100 is complete control. The note with it: POSTEMERGENCE
The method, then:
as §2, §3, §4

In experiment [8] the test system is rape (Brassica napus). The experiment in a line: Test D. The arrangement: key: 0 is no effect; 100 is complete control. To be noted: POSTEMERGENCE
The method, then: as §2, §3, §4

In experiment [9] the test system is sugar beet (Beta vulgaris). As to the kind of experiment: Test D. The arrangement: key: 0 is no effect; 100 is complete control. To be noted: POSTEMERGENCE
Here is the method:
as §2, §3, §4

Experiment [10] has as its system wild mustard (Sinapis arvensis). The experiment in a line: Test D. The arrangement: key: 0 is no effect; 100 is complete control. To be noted: POSTEMERGENCE
The method, then: as §2, §3, §4

Experiment [11] concerns downy brome (Bromus tectorum). As to the kind of experiment: Test D. To be noted: PREEMERGENCE
The test system of experiment [12] is jointed goatgrass (Aegilops cylindrica). The experiment in a line: Test D. The note with it: PREEMERGENCE
The arrangement: key: 0 is no effect.

For experiment [13], the system named is kochia (Kochia scoparia). As to the kind of experiment: Test D. The arrangement: key: 0 is no effect; 100 is complete control. To be noted: PREEMERGENCE
Experiment [14] has as its system winter barley (Hordeum vulgare). The experiment in a line: Test D. To be noted: PREEMERGENCE
The arrangement: key: 0 is no effect.

In the case of `Cc1cnc(-c2ccc(C(F)(F)F)cc2)nc1C(Cl)c1cccc(C(F)(F)F)c1` (racemic) [Compound 21], the “Plant response rating, Giant foxtail” value in experiment [1] (PREEMERGENCE, Rate 35 g/ha) was 85; in experiment [1] (PREEMERGENCE, Rate 70 g/ha), 100; in experiment [1] (PREEMERGENCE, Rate 140 g/ha) it was 100.
Consider `Cc1cnc(-c2ccc(C(F)(F)F)cc2)nc1Cc1cccc(OC(F)(F)F)c1` [Compound 15], for which the “Plant response rating, Giant foxtail” value stood at 70 in experiment [1] (PREEMERGENCE, Rate 35 g/ha); 100 in [1] (PREEMERGENCE, Rate 70 g/ha); 100 in [1] (PREEMERGENCE, Rate 140 g/ha). Further, the “Plant response rating, Green foxtail” value in experiment [2] (Rate 32 g/ha), in experiment [2] (Rate 64 g/ha), in experiment [2] (Rate 125 g/ha) and in experiment [2] (Rate 250 g/ha) was 100 throughout. Further, the figures for the “Plant response rating, Leafy spurge” value in experiment [3] (Rate 32 g/ha), in [3] (Rate 64 g/ha) and in [3] (Rate 250 g/ha) were 35, 65 and 98, respectively.
For the compound `CCc1cnc(-c2ccc(C(F)(F)F)cc2)nc1Cc1cccc(C(F)(F)F)c1` [Compound 22], the “Plant response rating, Blk nightshade” value turned out to be 90 in experiment [4] (Rate 62 g/ha) and 100 in [4] (Rate 125 g/ha). Also, the figures for the “Plant response rating, Chickweed” value in experiment [5] (Rate 62 g/ha) and in [5] (Rate 125 g/ha) were 60 and 100, respectively. Further, the “Plant response rating, Common poppy” value in [6] (Rate 62 g/ha) and in experiment [6] (Rate 125 g/ha) was 100 throughout. Moreover, the “Plant response rating, Deadnettle” value in experiment [7] (Rate 62 g/ha) was 50; in [7] (Rate 125 g/ha), 90. Moreover, the “Plant response rating, Rape” value in experiment [8] (Rate 62 g/ha) and in experiment [8] (Rate 125 g/ha) was 90 throughout. Moreover, the “Plant response rating, Sugar beet” value in experiment [9] (Rate 62 g/ha) and in experiment [9] (Rate 125 g/ha) was 100 in each case. For the same compound, the “Plant response rating, Wild mustard” value in [10] (Rate 62 g/ha) and in experiment [10] (Rate 125 g/ha) was 100 throughout. In addition, the “Plant response rating, Downy brome” value in experiment [11] (Rate 250 g/ha) worked out at 10. Also, the “Plant response rating, Jointed goatgra” value in experiment [12] (Rate 62 g/ha) was 0; in [12] (Rate 125 g/ha) it was 20; in experiment [12] (Rate 250 g/ha) it was 10. For the same compound, the “Plant response rating, Kochia” value in experiment [13] (Rate 62 g/ha) is 10; in experiment [13] (Rate 125 g/ha) it was 65; in [13] (Rate 250 g/ha), 60. Also, the “Plant response rating, Barley (winter)” value is recorded as 0 in experiment [14] (Rate 62 g/ha), 20 in [14] (Rate 125 g/ha) and 10 in [14] (Rate 250 g/ha).
`COc1cnc(-c2ccc(C(F)(F)F)cc2)nc1Cc1cccc(C(F)(F)F)c1` [Compound 23]: the “Plant response rating, Giant foxtail” value is recorded as 85 in [1] (PREEMERGENCE, Rate 35 g/ha); 100 in experiment [1] (PREEMERGENCE, Rate 70 g/ha); 100 in experiment [1] (PREEMERGENCE, Rate 140 g/ha).
With `Cc1cnc(-n2ccc(C(F)(F)F)n2)nc1Cc1cccc(OC(F)(F)F)c1` [Compound 42], the “Plant response rating, Giant foxtail” value was 70 in [1] (PREEMERGENCE, Rate 35 g/ha); 80 in [1] (PREEMERGENCE, Rate 70 g/ha); 100 in [1] (PREEMERGENCE, Rate 140 g/ha).
Taken in the same sequence, the figures for `Cc1cnc(-n2cnc(C(F)(F)F)n2)nc1Cc1cccc(C(F)(F)F)c1` [Compound 43] were 100, 100 and 100.
With `Cc1cnc(-n2ccc(C(F)(F)F)n2)nc1Cn1ccc(C(F)(F)F)n1` [Compound 52], the “Plant response rating, Giant foxtail” value amounted to 70 in experiment [1] (PREEMERGENCE, Rate 35 g/ha); 85 in [1] (PREEMERGENCE, Rate 70 g/ha); 100 in [1] (PREEMERGENCE, Rate 140 g/ha). For the same compound, the “Plant response rating, Blk nightshade” value in experiment [4] (Rate 16 g/ha) is recorded as 55; in [4] (Rate 31 g/ha), 60; in [4] (Rate 62 g/ha), 65; in experiment [4] (Rate 125 g/ha) it was 65. The “Plant response rating, Chickweed” value in experiment [5] (Rate 16 g/ha) came to 30; in [5] (Rate 31 g/ha) it was 50; in experiment [5] (Rate 62 g/ha), 70; in experiment [5] (Rate 125 g/ha), 80. The “Plant response rating, Common poppy” value in experiment [6] (Rate 16 g/ha) is 60; in experiment [6] (Rate 31 g/ha) it was 100; in experiment [6] (Rate 62 g/ha), 100; in experiment [6] (Rate 125 g/ha), 100. For the same compound, the “Plant response rating, Deadnettle” value in experiment [7] (Rate 16 g/ha) is on record as 45; in experiment [7] (Rate 31 g/ha), 100; in [7] (Rate 62 g/ha), 100; in experiment [7] (Rate 125 g/ha) it was 98. Also, the “Plant response rating, Rape” value is on record as 65 in experiment [8] (Rate 16 g/ha), 65 in experiment [8] (Rate 31 g/ha), 98 in experiment [8] (Rate 62 g/ha) and 85 in experiment [8] (Rate 125 g/ha). The “Plant response rating, Sugar beet” value in experiment [9] (Rate 16 g/ha), in experiment [9] (Rate 31 g/ha), in [9] (Rate 62 g/ha) and in experiment [9] (Rate 125 g/ha) was 100 each time. In addition, the “Plant response rating, Wild mustard” value in experiment [10] (Rate 16 g/ha) stood at 60; in experiment [10] (Rate 31 g/ha) it was 70; in [10] (Rate 62 g/ha), 98; in [10] (Rate 125 g/ha), 100. In addition, the “Plant response rating, Downy brome” value in [11] (Rate 31 g/ha) was 30; in experiment [11] (Rate 62 g/ha) it was 40; in experiment [11] (Rate 125 g/ha) it was 50. Further, the results for the “Plant response rating, Jointed goatgra” value in experiment [12] (Rate 31 g/ha), in experiment [12] (Rate 62 g/ha) and in [12] (Rate 125 g/ha) were 30, 40 and 40, respectively. Further, the “Plant response rating, Kochia” value in experiment [13] (Rate 31 g/ha) stood at 50; in experiment [13] (Rate 62 g/ha), 80; in experiment [13] (Rate 125 g/ha), 100. Further, the “Plant response rating, Barley (winter)” value was determined as 50 in experiment [14] (Rate 31 g/ha), 50 in [14] (Rate 62 g/ha) and 60 in [14] (Rate 125 g/ha).
Regarding `Cc1cnc(-n2ccc(C(F)(F)F)n2)nc1C(=O)c1cccc(OC(F)(F)F)c1` [Compound 66], the “Plant response rating, Giant foxtail” value in [1] (PREEMERGENCE, Rate 35 g/ha) is reported as 0; in experiment [1] (PREEMERGENCE, Rate 70 g/ha), 0; in experiment [1] (PREEMERGENCE, Rate 140 g/ha) it was 0.
Consider `Cc1cnc(-n2ccc(C(F)(F)F)n2)nc1Cc1cccc(C(F)(F)F)c1` [Example 2, 5-methyl-4-[[3-(trifluoromethyl)phenyl]methyl]-2-[3-(trifluoromethyl)-1H-pyrazol-1-yl]pyrimidine], for which the “Plant response rating, Giant foxtail” value in experiment [1] (PREEMERGENCE, Rate 35 g/ha) turned out to be 0; in experiment [1] (PREEMERGENCE, Rate 70 g/ha), 5; in [1] (PREEMERGENCE, Rate 140 g/ha), 100. Moreover, the “Plant response rating, Green foxtail” value in [2] (Rate 32 g/ha) is listed as 90; in [2] (Rate 64 g/ha), 100; in experiment [2] (Rate 125 g/ha), 100; in [2] (Rate 250 g/ha), 100. Moreover, the “Plant response rating, Leafy spurge” value in [3] (Rate 32 g/ha) came out at 60; in [3] (Rate 64 g/ha) it was 98; in [3] (Rate 125 g/ha), 100; in experiment [3] (Rate 250 g/ha), 100.
As to `Cc1cnc(-c2ccc(C(F)(F)F)cc2)nc1Cn1ccc(C(F)(F)F)n1` [compound 9], the “Plant response rating, Giant foxtail” value in experiment [1] (POSTEMERGENCE, Rate 35 g/ha) was 15; in experiment [1] (POSTEMERGENCE, Rate 70 g/ha) it was 15; in experiment [1] (POSTEMERGENCE, Rate 140 g/ha) it was 30; in [1] (PREEMERGENCE, Rate 35 g/ha) it was 90; in experiment [1] (PREEMERGENCE, Rate 70 g/ha), 100; in experiment [1] (PREEMERGENCE, Rate 140 g/ha), 100.
